{"source": "patent US7638517B2", "about": "“3-Amino-1-arylpropyl azaindoles and uses thereof” (Roche Palo Alto LLC, priority 2005, dated 2009)", "key": {"[1]": {"target": "T1, human serotonin transporter (hSERT) (Homo sapiens, UniProt P31645)", "T1 construct": "expressed in transfected cells; host or cells: HEK-293", "T1 sequence (P31645 whole entry)": "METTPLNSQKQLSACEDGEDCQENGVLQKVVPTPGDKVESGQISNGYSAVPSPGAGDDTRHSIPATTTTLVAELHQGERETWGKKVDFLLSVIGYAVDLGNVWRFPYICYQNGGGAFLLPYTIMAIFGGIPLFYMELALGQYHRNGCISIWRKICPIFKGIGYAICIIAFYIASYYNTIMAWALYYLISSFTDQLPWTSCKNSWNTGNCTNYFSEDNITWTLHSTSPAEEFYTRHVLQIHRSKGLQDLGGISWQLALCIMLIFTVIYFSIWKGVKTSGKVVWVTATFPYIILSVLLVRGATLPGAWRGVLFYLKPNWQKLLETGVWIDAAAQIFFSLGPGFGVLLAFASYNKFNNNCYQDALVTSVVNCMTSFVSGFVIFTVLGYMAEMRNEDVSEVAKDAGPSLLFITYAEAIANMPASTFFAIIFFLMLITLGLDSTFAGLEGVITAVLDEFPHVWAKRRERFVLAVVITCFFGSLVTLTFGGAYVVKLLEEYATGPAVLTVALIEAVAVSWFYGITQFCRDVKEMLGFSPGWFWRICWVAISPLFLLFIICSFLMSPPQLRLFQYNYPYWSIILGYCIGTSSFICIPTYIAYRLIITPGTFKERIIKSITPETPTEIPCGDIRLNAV", "test": "Screening for human serotonin transporter (hSERT) antagonists using a scintillation proximity assay, competition with [3H]-Citalopram", "format": "binding", "conditions": "hSERT SPA, membranes of HEK-293 cells expressing recombinant hSERT", "experimental": "The screening assay of this example was used to determine the affinity of ligands at the hSERT transporter by competition with [^3H]-Citalopram.\nScintillation Proximity Assay (SPA) works by bringing radioligand within close proximity to the bead's scintillant to stimulate light emission. In this assay, the receptor-containing membranes were pre-coupled to the SPA beads and the binding of the appropriate radioligand to the transporter was measured. The light emission was proportional to the amount of bound radioligand. Unbound radioligand produced no signal as a result of distant proximity to scintillant (lack of energy transfer). […]\n(§1) Cell membranes were prepared using a membrane preparation buffer of 50 mM TRIS (pH 7.4). […] After a second centrifugation, the pellet was re-homogenized and brought to a final volume determined during the assay. […]\nThe % inhibition was calculated for each compound tested [(Compound counts per minute (CPM) at maximum concentration-Non-Specific CPM)/Total CPM*100]. […]\n[formula] where max=total binding, min=non specific binding, x=concentration (M) of the tested compound and n=Hill slope. The inhibition dissociation constant (Ki) of each compound was determined according to the method of Cheng-Prusoff and then converted into negative logarithm (pKi) of the Ki."}, "[2]": {"target": "T2, human norepinephrine transporter (hNET) (Homo sapiens, UniProt P23975)", "T2 construct": "expressed in transfected cells; host or cells: HEK-293 (Clone: HEK-hNET #2)", "T2 sequence (P23975 whole entry)": "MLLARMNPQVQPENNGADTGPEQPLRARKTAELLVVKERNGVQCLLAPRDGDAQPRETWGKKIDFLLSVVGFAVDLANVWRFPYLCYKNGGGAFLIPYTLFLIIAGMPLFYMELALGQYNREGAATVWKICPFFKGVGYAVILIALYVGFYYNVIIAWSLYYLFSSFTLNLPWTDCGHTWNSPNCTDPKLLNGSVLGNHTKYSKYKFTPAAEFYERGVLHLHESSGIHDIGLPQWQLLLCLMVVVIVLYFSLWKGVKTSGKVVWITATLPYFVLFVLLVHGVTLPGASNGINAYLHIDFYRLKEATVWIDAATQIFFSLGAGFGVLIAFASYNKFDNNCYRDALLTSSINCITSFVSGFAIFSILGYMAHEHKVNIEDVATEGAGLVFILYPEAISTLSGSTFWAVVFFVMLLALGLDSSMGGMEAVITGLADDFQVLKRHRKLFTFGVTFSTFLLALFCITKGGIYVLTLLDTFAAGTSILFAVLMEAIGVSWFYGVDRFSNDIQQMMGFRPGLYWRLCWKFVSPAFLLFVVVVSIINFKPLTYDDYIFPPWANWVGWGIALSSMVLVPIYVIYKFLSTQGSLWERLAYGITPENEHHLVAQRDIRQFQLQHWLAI", "test": "Screening for compounds active at human norepinephrine transporter (hNET) using a scintillation proximity assay, competition with [3H]-Nisoxetine", "format": "binding", "conditions": "hNET SPA, membranes of HEK-293 cells expressing recombinant hNET", "experimental": "This assay was used to determine the affinity of ligands for the hNET transporter by competition with [^3H]-Nisoxetine. As in the hSERT assay of the above example, receptor-containing membranes were pre-coupled to the SPA beads and the binding of the appropriate radioligand to the transporter was measured. The light emission was proportional to the amount of bound radioligand, with unbound radioligand producing no signal.\nHEK-293 cells (Tatsumi et al., Eur. J. Pharmacol. 1997, 30, 249-258) stably expressing recombinant hNET (Clone: HEK-hNET #2) were maintained with media (DMEM hi glucose with 10% FBS, 300 μg/ml G418 and 2 mM L-Glutamine) and incubated at 37° C. with 5% CO2. Cells were released from culture flasks using PBS for 1-2 minutes. […]\nas §1\n^3[H] […] The mixtures were allowed to stand at room temperature for one hour, and were then counted on a Packard TopCount LCS, a generic SPA counting protocol settings (Energy Range: Low, Efficiency Mode: Normal, Region A: 1.50-35.00, Region B: 1.50-256.00, Count Time (min.): 0.40, Background Subtract: none, Half-Life Correction: no, Quench Indicator: tSIS, Platemap blank subtraction: No, Cross talk reduction: Off). […]"}}}
{"smiles": "CNCC[C@@H](c1ccccc1)c1c[nH]c2nccc(OC)c12", "note": "[compound 23, [(S)-3-(4-Methoxy-1H-pyrrolo[2,3-b]pyridin-3-yl)-3-phenyl-propyl]-methyl-amine]", "values": [{"measurement": "IC50", "setting": "[1]", "value": "~1.78", "unit": "nM"}, {"measurement": "IC50", "setting": "[2]", "value": "~17.8", "unit": "nM"}]}
